# Source: PMC6063800 (Peptides, 2018)
# Structures can show the parent of a compound that is named as a salt. No end group written: not given here.
# Columns and labels:
# [1] = system: Escherichia coli ATCC 25922; assay: microbe, parasite or virus in culture; format: cell-based; conditions: for MIC, EC: ATCC 25922, 20 h
# [2] = system: Klebsiella pneumoniae ATCC 13883; assay: microbe, parasite or virus in culture; format: cell-based; conditions: for MIC, KP: ATCC 13883, 20 h
# [3] = system: Pseudomonas aeruginosa PAO1; assay: microbe, parasite or virus in culture; format: cell-based; conditions: PAO1, 20 h
# [4] = system: Staphylococcus aureus USA300; assay: microbe, parasite or virus in culture; format: cell-based; conditions: for MIC, SA: USA300, 20 h
# Bacillus subtilis 168 = assay: microbe, parasite or virus in culture; format: cell-based; conditions: for MIC, BS: 168, 20 h
# S. aureus USA300 biofilm = assay: Disruption of 24-h preformed biofilms; format: cell-based, Staphylococcus aureus; conditions: linezolid in the presence of 1.56 μM temporin-1OLa versus antibiotic alone, XTT
# S. aureus USA300 = assay: Checkerboard synergy of peptide and antibiotics; format: cell-based, Staphylococcus aureus; conditions: in combination with temporin-1OLa
# [5] = system: Candida albicans ATCC 10231; format: cell-based; conditions: ATCC 10231, 48 h
# C. glabrata ATCC 2001 = format: cell-based, Candida glabrata; conditions: ATCC 2001, 48 h
# C. tropicalis ATCC 13803 = format: cell-based, Candida tropicalis; conditions: ATCC 13803, 48 h
# [6] = system: Human red blood cells (hRBC); assay: Hemolytic assay; format: cell-based; conditions: red cells of human, 1 h
Molecule,"MIC ([1]; Escherichia coli, ATCC25922, 20 h, read-out: MIC, EC) [µM]","MIC ([2]; Klebsiella pneumoniae, ATCC13883, 20 h, read-out: MIC, KP) [µM]","MIC ([3]; Pseudomonas aeruginosa, read-out: MIC, PA) [µM]","MIC ([4]; Staphylococcus aureus, MRSA|USA300, 20 h, read-out: MIC, SA) [µM]","MIC (Bacillus subtilis 168; Bacillus subtilis, 168, 20 h, read-out: MIC, BS) [µM]",disruption of 24 h established biofilms by combination (S. aureus USA300 biofilm),combined effect with the peptide (S. aureus USA300),"MIC, C. albicans [5] [µM]","MIC, EC [1] [µM]","MIC, KP [2] [µM]","MIC, PA [3] [µM]","MIC, C. glabrata (C. glabrata ATCC 2001) [µM]","MIC, SA [4] [µM]","MIC, C. tropicalis (C. tropicalis ATCC 13803) [µM]","MIC, BS (Bacillus subtilis 168) [µM]",HL50 (peptide concentration that causes 50% hemolysis) [6] [µM]
"CN[C@H](CC(C)C)C(=O)N[C@H]1C(=O)N[C@@H](CC(N)=O)C(=O)N[C@H]2C(=O)N[C@H]3C(=O)N[C@H](C(=O)N[C@H](C(=O)O)c4cc(O)cc(O)c4-c4cc3ccc4O)[C@H](O)c3ccc(c(Cl)c3)Oc3cc2cc(c3O[C@@H]2O[C@H](CO)[C@@H](O)[C@H](O)[C@H]2O[C@H]2C[C@](C)(N)[C@H](O)[C@H](C)O2)Oc2ccc(cc2Cl)[C@H]1O [Vancomycin, vancomycin hydrochloride, reference compound]",> 50,> 50,> 50,0.78,> 3.1,–,–,–,–,–,–,–,–,–,–,–
CC(=O)NC[C@H]1CN(c2ccc(N3CCOCC3)c(F)c2)C(=O)O1 [linezolid],–,–,–,–,–,reduce biofilms more effectively,additive effect,–,–,–,–,–,–,–,–,–
FLPIVGRLISGIL [temporin-CPb],–,–,–,–,–,–,–,50,>50,>50,>50,>50,12.5,6.2 to 12.5,25 to 50,–
FLPLLASLFSRLF [temporin-1Oc],–,–,–,–,–,–,–,25,>50,>50,>50,25,–,1.6 to 3.1,12.5,<12.5
FLSAITSILGKFF [temporin-1SPa],–,–,–,–,–,–,–,25,>50,>50,>50,25,6.3,6.2,12.5,37.5
IPPFIKKVLTTVF [temporin-CPa],–,–,–,–,–,–,–,25,12.5,50,>50,12.5,≥25,3.1 to 6.2,50,–
SILPTIVSFLSKVF [temporin-1Ga],–,–,–,–,–,–,–,12.5,>50,>50,>50,12.5,3.1,3.1,6.3,12.5
